Results published in article PMC10647704 (Molecules, 2023).
Converted amounts (≈) assume the structure as drawn. Like-named read-outs stand apart in the source and are kept apart here.

Columns and labels:
[1] = system: C. albicans S2 (FLU-resistant); test: microbe, parasite or virus in culture; assay type: cell-based
[2] = system: C. albicans S2 (FLU-resistant); test: microbe, parasite or virus in culture; assay type: cell-based; conditions: read-out: MIC, colorimetric assay
[3] = Candida albicans, 48 h, read-out: Turbidity Assay IC50 C. albicans S2
[4] = Candida albicans, 24 h, read-out: MIC, turbidity assay
[5] = Candida albicans, 48 h, read-out: MIC, turbidity assay

Structure (SMILES) | IC50 [1, 3] [µM] | MIC ([2]; Candida albicans, 24 h) [µM] | MIC ([2]; Candida albicans, 48 h) [µM] | MIC [1, 4] [µM] | MIC [1, 5] [µM] | further results
C[C@H]1[C@H](n2[se]c3ccccc3c2=O)C[C@@H]2C[C@H]1C2(C)C [CHB2] | 6.2 ± 0.1 | 6.3 (≈ 2.11 µg/mL) | 3.1 (≈ 1.04 µg/mL) | – | – | –
C[C@@H]1[C@@H](n2[se]c3ccccc3c2=O)C[C@H]2C[C@@H]1C2(C)C [CHB1] | 1.8 ± 0.1 | – | – | 3.1 (≈ 1.04 µg/mL) | 3.1 (≈ 1.04 µg/mL) | –
CC1(C)C2CCC(Cn3[se]c4ccccc4c3=O)C1C2 (single isomer, unassigned; (-)) [CHB3] | 15.1 ± 0.2 | 25 (≈ 8.36 µg/mL) | 25 (≈ 8.36 µg/mL) | 50 (≈ 16.7 µg/mL) | 25 (≈ 8.36 µg/mL) | –
C[C@@H]1C[C@H]2[C@@H](C[C@H]1n1[se]c3ccccc3c1=O)C2(C)C [CHB5] | 14.4 ± 0.5 | – | – | – | – | –
O=c1c2ccccc2[se]n1-c1ccccc1 [EB, Ebselen, reference compound] | – | – | – | – | – | IC50 ([1]; Abs600nm at 48 h; read-out: Turbidity Assay IC50 C. albicans S2): 14.3 ± 0.46 µM; MIC ([1]; C. albicans S2, 24 h; for FLU the lowest concentration causing 70% decrease in turbidity; read-out: MIC, turbidity assay): 25.0 µM (≈ 6.85 µg/mL); MIC ([1]; C. albicans S2, 48 h; for FLU the lowest concentration causing 70% decrease in turbidity; read-out: MIC, turbidity assay): 25.0 µM (≈ 6.85 µg/mL); MIC ([1]; Candida albicans, 24 h; read-out: MIC, turbidity assay): 25 µM (≈ 6.85 µg/mL); IC50 ([1]; Candida albicans, 48 h, Abs600nm at 48 h; read-out: Turbidity Assay IC50 C. albicans S2): ~14 µM; MIC ([1]; Candida albicans, 48 h; read-out: MIC, turbidity assay): 25 µM (≈ 6.85 µg/mL); MIC ([2]; C. albicans S2, 24 h, resazurin): 25.0 µM (≈ 6.85 µg/mL); MIC ([2]; C. albicans S2, 48 h, resazurin): 25.0 µM (≈ 6.85 µg/mL); MIC ([2]; Candida albicans, C. albicans S2, 24 h, resazurin): 25 µM (≈ 6.85 µg/mL); MIC ([2]; Candida albicans, C. albicans S2, 48 h, resazurin): 25 µM (≈ 6.85 µg/mL)
CC(C)[C@@H]1CC[C@@H](C)C[C@H]1n1[se]c2ccccc2c1=O [CHB6, (−)-N-(1R,2S,5R)-menthyl-1,2-benzizoselenazol-3(2H)-one] | 1.8 ± 0.1 | 6.3 (≈ 2.12 µg/mL) | 6.3 (≈ 2.12 µg/mL) | 3.1 (≈ 1.04 µg/mL) | 3.1 (≈ 1.04 µg/mL) | –
C[C@H]1CC[C@@H]2[C@H]([C@@H]1n1[se]c3ccccc3c1=O)C2(C)C [CHB4] | 1.8 ± 0.1 | 3.1 (≈ 1.04 µg/mL) | 3.1 (≈ 1.04 µg/mL) | 3.1 (≈ 1.04 µg/mL) | 3.1 (≈ 1.04 µg/mL) | –
